Entries after “also recorded” stand apart in the source; their conditions may differ.

Experiment [1] has as its system HL-60 cells. Description: DNA fragmentation by propidium iodide flow cytometry, HL-60. The format is cell-based, human. The following applies: HL-60, 12.5 and 25 μM, 24 hours. The protocol:
FIG. 4 depicts the detection of DNA Fragmentation. DNA cleavage in [Os3(CO)10(μ-H)(μ-S)C9H6N]-treated tumour cells was assessed using flow cytometric analysis. HL-60 cells were treated with 12.5 and 25 μM [Os3(CO)10(pt-H)(μ-S)C9H6N] for 24 hours, immediately fixed in ethanol, and stained with PI for DNA content analysis. SubG1 population indicates subdiplod DNA content indicative of apoptotic DNA fragmentation. Data shown are representative of at least three independent experiments.
For cellular DNA content determination, 1×10^6 cells/ml from each cell line were treated with [Os3(CO)10(μ-H)(μ-S)C9H6N]. After treatment, cells were washed twice with 1×PBS+1 FBS. Sample preparation and staining with PI for DNA content were performed as described elsewhere (32). […]
Fixed cells were left at 4° C. for 30 min, centrifuged at 1000×g for 5 min and washed once with 1×PBS+1% FBS. […] Stained cells were analyzed by flow cytometry with the excitation set at 488 nm and the emission set at 610 nm (red).
The ability of the cells to scatter light in a forward direction (FS) correlates with cell volume. Os drug-treated cells were analysed for changes in the intensity of FS as compared to untreated control cells. A total of 10,000 cells per sample were studied and data were analyzed by the WINMDI software.
(A flow cytometer gives signals particle by particle.)

Experiment [2] concerns Jurkat Neo and Jurkat BCL2 cells. Description: DNA fragmentation by PI, Jurkat Neo and Jurkat BCL2. The format is cell-based. The following applies: 12.5 and 25 μM, 18 hours; for DNA fragmentation / apoptosis with Bcl-2 overexpression: BCl2 overexpressing jurkat cells. As for the experimental part: Jurkat Neo and Jurkat BCL2 cells were treated with 12.5 and 25 μM of [Os3(CO)10(μ-H)(μ-S)C9H6N] for 18 hours, immediately fixed in ethanol and stained with PI for DNA content analysis. Sub-G1 population indicates subdiploid DNA content indicative of apoptotic. The DNA fragmentation induced by [Os3(CO)10(μ-H)(μ-S)C9H6N] is inhibited in BCl2 overexpressing jurkat cells. Data shown are representative of at least three independent experiments.
For cellular DNA content determination, 1×10^6 cells/ml from each cell line were treated with [Os3(CO)10(μ-H)(μ-S)C9H6N]. After treatment, cells were washed twice with 1×PBS+1 FBS. Sample preparation and staining with PI for DNA content were performed as described elsewhere (32). Briefly, cell pellets were resuspended in 0.5 ml of 1×PBS+1% FBS and immediately fixed by adding 5 ml of 70% ethanol while vortexing to avoid clumping.
Fixed cells were left at 4° C. for 30 min, centrifuged at 1000×g for 5 min and washed once with 1×PBS+1% FBS. Cell pellets were then suspended in 0.5 ml of PI/RNAse. A solution prepared by adding 1/50 volume of PI stock and 1/40 volume of RNAse. A stock to 1×PBS+1% FBS and incubated for 30 min at 37° C. Stained cells were analyzed by flow cytometry with the excitation set at 488 nm and the emission set at 610 nm (red).

The subject of a further experiment is jurkat cells. Kind of experiment: Intracellular superoxide, lucigenin chemiluminescence, Jurkat. The format is cell-based. The following applies: 12.5 and 25 μM, 2 h and 4 h (FIG. 5A). As for the experimental part: (§1) (A) Jurkat cells and (B) HL-60 cells (2×10^6) were incubated with 12.5 and 25 μM [Os3(CO)10(μ-H)(μ-S)C9H6N] and […] O2^− was measured by a lucigenine-based chemiluminescence assay (C) A, cytosolic pH was determined with the pH-sensitive probe 2′,7′-bis(2-carboxyethyl)-5,6-carboxy-fluorescein.
(§2) A lucigenin-based chemiluminescence assay is routinely used in the laboratory as detailed in Clement and Pervaiz (Pervaiz S, Clement M V, Methods Enzymol. (2002) 352, 150-159). In brief, chemiluminescence was monitored using a Berthold Sirius Luminometer (Berthold Detection Systems GmbH, Bleichstralβe/Pforzheim, Germany). Data are described as relative light units/mg of protein (RLU/mg protein). Protein concentration was determined using the Coomassie Plus protein assay reagent from Pierce (Pierce Chemical Company, Rockford, Ill., USA) as detailed by the manufacturer.
(§3) This example illustrates determining whether and to what extent apoptosis induced by an osmium triangulo compound of the present invention is accompanied by an increase in intracellular ROS production. Cells were exposed to [Os3(CO)10(μ-H)(μ-S)C9H6N] for 2 h and 4 h and intracellular O2^− production was measured by a lucigenin-based chemiluminescence assay.

The subject of experiment [3] is HL-60 cells. Kind of experiment: Intracellular superoxide, lucigenin chemiluminescence, HL-60. It is filed as cell-based, human. The following applies: 12.5 and 25 μM, 2 h and 4 h (FIG. 5B). The protocol: as §1, §2, §3
A further experiment deals with cells. Description: Intracellular pH with BCECF. The format is cell-based. To be noted: FIG. 5C. The protocol: as §1
Intracellular (pHi) was measured by loading cells with […] dye BCECF (Sigma). Briefly, cells (1×10^6) before or after exposure (2-12 h at 37° C.) to [Os3(CO)10(μ-H)(μ-S)C9H6N] was washed once with HBSS, resuspended in 0.1 ml of HBSS, and loaded with […] of 1 mM BCECF at 37° C. for 30 min in the dark. Cells were then resuspended in 0.5 ml of HBSS and analyzed using a Coulter Epics Elite ESP (Coulter, Hialeah, Fla.) flow cytometer with the excitation set at 488 nm. A minimum of 10,000 events was analyzed, and the ratio of BCECF fluorescence at 525 and 610 was used to obtain intracellular pH from a pH calibration curve. […] Immediately before flow cytometry, cells were loaded with […] nigericin (1 mM stock in absolute alcohol; Sigma), and fluorescence ratio measurements (525 nm/610 nm) of cells in nigericin-containing buffers of a range of pH were then used to relate histogram channel numbers to ipH. […]

Experiment [4] deals with HL-60 cells. Kind of experiment: Flow cytometric analysis of intracellular H2O2 (DCFH-DA). It is filed as cell-based, human. The protocol: Cells were then loaded with DCFH-DA (5 μM) for 15 minutes and the amount of intracellular H2O2 generated was indicated by the shift in fluorescence as detected by flow cytometry.
Intracellular H2O2 was determined by staining with 2,7-dichloro-fluorescein diacetate (Molecular Probes, Eugene, Oreg.), which is oxidised to dichlorofluorescein by H2O2 described elsewhere (Hirpara, J. L., et al., J Biol. Chem. (2001) 276, 514-521). In brief, HL-60 cells were exposed to […] [Os3(CO)10(μ-H)(μ-S)C9H6N] 4 h, loaded with […] 2′,7′-dichlorofluorescein diacetate at 37° C. for […], and analysed by flow cytometry (Coulter Epics Elite ESP; excitation 488 nm). Catalase (1000 units/ml) was used to scavenge intracellular H2O2 before addition of the drugs and flow cytometric analysis of H2O2 for 4 h, followed by flow cytometry for H2O2. At least 10,000 events were analysed.

For a further experiment, the system named is death receptor CD95. Description: Surface expression of CD95 by flow cytometry. To be noted: HL60 cells, 12 hours. Details: dose or concentration left out as unconfirmed. It is filed as cell-based, human. The protocol: FIG. 8 depicts the upregulation of Cd95 by [Os3(CO)10(μ-H)(μ-S)C9H6N] in tumour cells. HL60 cells were treated with […] [Os3(CO)10(μ-H)(μ-S)C9H6N] for 12 hours and surface expression of CD95 was analysed by flow cytometry as described in Materials and Methods. The shaded histograms show unstained cells. Mouse IgG1k was used as an isotype control. At least 10,000 events were counted, and data shown are representative of at least three separate experiments.

The test system of experiment [5] is caspases 2, 8, 9, and 3. Description: Caspase activities (AFC substrates), HL60. To be noted: HL60 cells, within 6 hours; more pronounced than in Jurkat. The format is cell-based, human. The protocol: (§4) Activities of caspases 8, 2, 9, and 3 were determined in lysates of [Os3(CO)10(μ-H)(μ-S)C9H6N]-treated (A) Jurkat and (B) HL 60 cells and shown as fold increase over untreated cells.
(§5) Caspases 2, 3, 8, and 9 activities were assayed by using AFC-conjugated substrates supplied by Bio-Rad. Cells (1×10^6 cells/ml) were incubated with the drugs over a time course, washed twice with 1×PBS, resuspended in 50 μl of chilled cell lysis buffer (provided by the supplier), and incubated on ice for 10 min. 50 μl of 2× reaction buffer (10 mM HEPES, 2 mM EDTA, 10 mM KCl, 1.5 mM MgCl2, 10 mM dithiothreitol) and […] of the fluorogenic caspase-specific (VDVAD-AFC for caspase 2, DEVD-AFC for caspase 3, IETD-AFC for caspase 8, and LEHDAFC for caspase 9) were added to each sample and incubated at 37° C. for 1 h. Protease activity was determined by the relative fluorescence intensity at 505 nm following excitation at 400 nm using a spectrofluorimeter (Luminescence Spectrometer LS50B, PerkinElmer Life Sciences, Buckinghamshire, United Kingdom).

The test system of experiment [6] is caspases 2, 8, 9, and 3. Description: Caspase activities (AFC substrates), Jurkat. It is filed as cell-based. To be noted: Jurkat cells, within 6 hours. As for the experimental part:
as §4, §5

Another experiment has as its system cytochrome C. Description: Western blotting for cytochrome C release. It is filed as cell-based, human. To be noted: HL60 cells, 12.5 and 25 μM, 12 hours. As for the experimental part: (§6) FIG. 12 illustrates that [Os3(CO)10(μ-H)(2-S)C9H6N] induces apoptosis through the mitochondrial pathway. HL60 cells (30×10^6) were treated with 12.5 (A) and 25 μM (B) of [Os3(CO)10(μ-H)(μ-S)C9H6N] treated for 12 hours and cytosolic and mitochondria fractions were subjected to SDS-PAGE electrophoresis, transferred to PVDF membrane, and probe with anti-Cyt.C and anti-Bax antibodies (C). Anti-βactin antibody was used to assess equal loading of samples.
Cytochrome c release was assessed by Western blot analysis of cytosolic extracts from 30×10^6 cells as described previously (Hirpara, J. L. et al., J. Biol. Chem. (2001) 276, 514-521, incorporated herein by reference in its entirety; Pervaiz et al., 1999, supra). Cytosolic fractions were obtained and analysed by Western blotting.
Briefly, cells were washed twice with ice-cold PBS, pH 7.4, followed by centrifugation at 200×g for 5 minutes. The cell pellet was then resuspended in 600 μL of extraction buffer, containing 200 mmol/L mannitol, 68 mmol/L sucrose, 50 mmol/L PIPES-KOH, pH 7.4, 50 mmol/L KCl, 5 mmol/L EGTA, 2 mmol/L MgCl2, 1 mmol/L DTT, and protease inhibitors (Complete Cocktail; Boehringer Mannheim, Mannheim, Germany). […] Signal was detected by the Super Signal Substrate Western Blotting kit (Pierce).

The next experiment has as its system Bax. Kind of experiment: Western blot of Bax sub-cellular localization. The following applies: HL60 cells, 12.5 and 25 μM, 12 hours. It is filed as cell-based, human. As for the experimental part:
as §6
For analysis of poly(ADP-ribose) polymerase cleavage, lysates from 2×10^6 cells were prepared in sample buffer [50 mmol/L Tris/HCl (pH 6.8), 6 mol/L urea, 3% SDS, 0.003% Bromphenol Blue, and 6% β-mercaptoethanol] and subjected to Western blot analysis using anti-poly(ADP-ribose) polymerase (clone C-2-10, PharMingen) as described (Pervaiz et al., 199, supra). For Western blot analysis of Bax, cells (2×10^6) were lysed by adding […] of chilled 1× radioimmunoprecipitation assay buffer lysis buffer, and 50 μg of protein were subjected to 15% PAGE and transferred to polyvinylidene difluoride as above. Alternatively for analysis of Bax dimerization/multimerization, cell lysates were subjected to 10% native gel electrophoresis. […] Chemiluminescence was detected as described above.
For orientation: A western blot detects proteins with antibodies after separation by electrophoresis.

The test system of the next experiment is Akt/PKB. Kind of experiment: Western blot of total Akt/PKB and Akt/PKB phosphorylation (Ser473). The format is cell-based, human. The protocol: The capability of the varying doses of [Os3(CO)10(μ-H)(μ-S)C9H6N] to dephosphorylate and deactivate Akt was shown by Western blot. HL 60 cells (2×10^6) were incubated with varying doses of [Os3(CO)10(μ-H)(μ-S)C9H6N] (12.5 and 25 μM) for 2, 4, and 6 hours and cell lysates were obtained for Western blot analysis of the Akt phosphorylation status.
HL-60 cells (2×10^6) were plated in a 12 well plate followed by exposure to the drug. Cells were harvested, washed once with PBS, and then lysed with cell lysis buffer [150 mmol/L NaCl, Tris-HCl (pH 7.4), 1% NP40]. Cell lysate (200 μg) was then electrophoresed on an 8% acrylamide gel. Antibodies were used to probe for total Akt and phosphorylated Akt/PKB at the Ser473 position (Cell Signaling, Beverly, Mass.). Protein blots were probed with anti β-actin (Sigma-Aldrich, St. Louis, Mo.) to check for equal protein loading).

For [Os3(CO)10(μ-H)(μ-S)C9H6N], the “percentage of sub-diploid DNA (sub-G1 fraction)” value in the experiment on HL-60 cells [1] is recorded as “increased significantly”. Further, the entries for the “DNA fragmentation / apoptosis with Bcl-2 overexpression” value in [2] and in experiment [2] (listed as [Os3(CO)10(μ-H)(μ-S)C9H9N]) were “inhibited” and “blocked”, respectively. For the same substance, in [2] (Jurkat Neo), the “DNA fragmentation (sub-G1)” value was “induces DNA fragmentation”. For the same substance, the “intracellular O2− production” value with jurkat cells and in the experiment on HL-60 cells [3] was “early increase” each time. The “cytosolic pH” value with cells was “significant drop”. Also, the “intracellular H2O2” value in the experiment on HL-60 cells [4] (HL-60, 12.5 and 25 μM, within 4 hours) is “significant surge”. Also, the “intracellular H2O2 in presence of catalase” value with HL-60 cells [4] (HL-60, catalase 1000 U/ml) was “completely blocked”. Also, in the experiment with death receptor CD95, the “surface expression of CD95” value is “upregulation; also recorded: significant increase”. Besides, the “activation of caspases 2, 8, 9 and 3” value in the experiment on caspases 2, 8, 9, and 3 [5] was “induces caspase activation”; in the experiment with caspases 2, 8, 9, and 3 [6], “induces caspase activation”. Also, the “cytochrome C release” value in the experiment on cytochrome C is reported as “occurred in a dose dependent manner”. Also, the “sub-cellular localization of Bax” value in the experiment with Bax is given as “no significant change”. Further, in the experiment with Akt/PKB (HL-60, 12.5 and 25 μM, 2, 4 and 6 hours), the “total Akt signal” value is recorded as “remained almost unchanged”. The Akt phosphorylation entry in the experiment on Akt/PKB (HL-60, 12.5 and 25 μM, within 4 to 6 hours of exposure) is “down regulation; also recorded: strong inhibition”.

The values are drawn from patent US8399447B2, “Metal triangulo compound and methods of using the same” (National University of Singapore, priority 2007, dated 2013).
